# Results as given in patent US8338465B2, “Cyclic carboxylic acid rhodanine derivatives for the treatment and prevention of tuberculosis” (priority 2006, dated 2012).
# Target: T1, dihydrolipoamide acyltransferase (DlaT) (Mycobacterium tuberculosis, UniProt P9WIS7)
# T1 sequence (P9WIS7 1-553): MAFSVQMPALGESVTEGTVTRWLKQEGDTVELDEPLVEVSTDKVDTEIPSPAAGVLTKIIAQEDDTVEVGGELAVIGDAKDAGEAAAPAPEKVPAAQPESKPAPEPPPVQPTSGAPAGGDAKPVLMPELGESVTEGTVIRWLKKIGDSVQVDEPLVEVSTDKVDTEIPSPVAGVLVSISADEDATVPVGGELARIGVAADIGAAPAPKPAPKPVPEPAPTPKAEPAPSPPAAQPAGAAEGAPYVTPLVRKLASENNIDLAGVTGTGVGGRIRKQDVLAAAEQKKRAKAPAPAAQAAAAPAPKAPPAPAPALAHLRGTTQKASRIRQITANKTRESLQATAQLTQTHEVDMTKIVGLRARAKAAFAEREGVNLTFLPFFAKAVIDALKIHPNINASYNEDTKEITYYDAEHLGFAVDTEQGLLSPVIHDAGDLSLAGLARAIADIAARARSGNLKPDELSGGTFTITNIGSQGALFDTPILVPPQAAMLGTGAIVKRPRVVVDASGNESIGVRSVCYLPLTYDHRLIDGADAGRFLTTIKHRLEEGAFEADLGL
# Test: DlaT inhibition (Dlat IC50); DTNB peroxidase assay with Lpd, DlaT and AhpD
# Assay type: biochemical
# Details: Table 1, Compounds A1 to A294; read-out: Dlat IC50 category
row,Structure (SMILES),IC50
1,CC(C)(C)c1ccc(-c2ccc(C=C3SC(=S)N(c4cccc(C(=O)O)c4)C3=O)o2)c(O)c1 [Compound A133],< 10 µM
2,Cc1ccccc1-c1ccc(C=C2SC(=S)N(c3cccc(C(=O)O)c3)C2=O)o1 [Compound A134],11 to 40 µM
3,COc1ccccc1-c1ccc(C=C2SC(=S)N(c3cccc(C(=O)O)c3)C2=O)o1 [Compound A135],< 10 µM
4,O=C(O)c1ccc(Cl)c(N2C(=O)C(=Cc3ccc(-c4ccc(N5CCOCC5)cc4)o3)SC2=S)c1 [Compound A137],< 10 µM
5,O=C(O)c1cccc(N2C(=O)C(=Cc3ccc(-c4ccccc4F)o3)SC2=S)c1 [Compound A138],11 to 40 µM
6,COc1ccccc1-c1ccc(C=C2SC(=S)N(c3cc(C(=O)O)ccc3F)C2=O)o1 [Compound A139],< 10 µM
7,COc1ccccc1-c1ccc(C=C2SC(=S)N(c3cc(C(=O)O)ccc3Cl)C2=O)o1 [Compound A140],< 10 µM
8,COc1ccccc1-c1ccc(C=C2SC(=S)N(c3cc(C(=O)O)ccc3C)C2=O)o1 [Compound A141],< 10 µM
9,COc1ccccc1-c1ccc(C=C2SC(=S)N(c3cccc(C(=O)O)c3C)C2=O)o1 [Compound A142],< 10 µM
10,N#Cc1c(F)cccc1-c1ccc(C=C2SC(=S)N(c3cccc(C(=O)O)c3)C2=O)o1 [Compound A143],11 to 40 µM
11,Cc1ccccc1-c1ccc(C=C2SC(=S)N(c3cc(C(=O)O)ccc3F)C2=O)o1 [Compound A144],< 10 µM
12,Cc1ccccc1-c1ccc(C=C2SC(=S)N(c3cc(C(=O)O)ccc3C)C2=O)o1 [Compound A145],< 10 µM
13,COc1ccc(-c2ccc(C=C3SC(=S)N(c4cccc(C(=O)O)c4)C3=O)o2)cc1Cl [Compound A146],< 10 µM
14,Cc1ccc(-c2ccc(C=C3SC(=S)N(c4cccc(C(=O)O)c4)C3=O)o2)cc1 [Compound A147],11 to 40 µM
15,Cc1cc(F)ccc1-c1ccc(C=C2SC(=S)N(c3cccc(C(=O)O)c3)C2=O)o1 [Compound A148],< 10 µM
16,Cc1cc(F)ccc1-c1ccc(C=C2SC(=S)N(c3cc(C(=O)O)ccc3F)C2=O)o1 [Compound A149],< 10 µM
17,Cc1ccc(-c2ccc(C=C3SC(=S)N(c4cccc(C(=O)O)c4)C3=O)o2)c(F)c1 [Compound A150],11 to 40 µM
18,Cc1ccc(-c2ccc(C=C3SC(=S)N(c4cc(C(=O)O)ccc4F)C3=O)o2)c(F)c1 [Compound A151],< 10 µM
19,COc1ccc(-c2ccc(C=C3SC(=S)N(c4cccc(C(=O)O)c4)C3=O)o2)cc1 [Compound A152],11 to 40 µM
20,O=C(O)c1cccc(N2C(=O)C(=Cc3ccc(-c4ccc(F)cc4F)o3)SC2=S)c1 [Compound A153],< 10 µM
21,O=C(O)c1ccc(F)c(N2C(=O)C(=Cc3ccc(-c4ccc(F)cc4F)o3)SC2=S)c1 [Compound A154],< 10 µM
22,Cc1ccc(-c2ccc(C=C3SC(=S)N(c4cccc(C(=O)O)c4)C3=O)o2)c(C)c1 [Compound A155],11 to 40 µM
23,Cc1ccc(-c2ccc(C=C3SC(=S)N(c4cc(C(=O)O)ccc4F)C3=O)o2)c(C)c1 [Compound A156],< 10 µM

row,Structure (SMILES),IC50
1,CC(C)(C)OC(=O)Nc1ccccc1-c1ccc(C=C2SC(=S)N(c3cccc(C(=O)O)c3)C2=O)o1 [Compound A157],> 41 µM
2,Nc1ccccc1-c1ccc(C=C2SC(=S)N(c3cccc(C(=O)O)c3)C2=O)o1 [Compound A158],> 41 µM
3,COc1ccc(-c2ccc(C=C3SC(=S)N(c4cccc(C(=O)O)c4)C3=O)o2)c(C)c1 [Compound A159],11 to 40 µM
4,COc1ccc(-c2ccc(C=C3SC(=S)N(c4cc(C(=O)O)ccc4F)C3=O)o2)c(C)c1 [Compound A160],< 10 µM
5,Cc1ccccc1-c1cccc(C=C2SC(=S)N(c3cc(C(=O)O)ccc3F)C2=O)n1 [Compound A161],< 10 µM
6,O=C(O)c1cccc(N2C(=O)C(=Cc3ccc(-c4ccccc4O)o3)SC2=S)c1 [Compound A162],< 10 µM
7,O=C(O)c1ccc(F)c(N2C(=O)C(=Cc3ccc(-c4ccccc4O)o3)SC2=S)c1 [Compound A163],< 10 µM
8,CC(C)(C)OC(=O)Nc1ccccc1-c1ccc(C=C2SC(=S)N(c3cc(C(=O)O)ccc3F)C2=O)o1 [Compound A164],11 to 40 µM
9,Cc1ccc(-c2ccc(C=C3SC(=S)N(c4cc(C(=O)O)ccc4F)C3=O)o2)cc1 [Compound A165],< 10 µM
10,COc1ccc(-c2ccc(C=C3SC(=S)N(c4cc(C(=O)O)ccc4F)C3=O)o2)cc1 [Compound A166],< 10 µM
11,COc1ccc(-c2ccc(C=C3SC(=S)N(c4cccc(C(=O)O)c4)C3=O)o2)c(OC)c1 [Compound A167],< 10 µM
12,COc1ccc(-c2ccc(C=C3SC(=S)N(c4cc(C(=O)O)ccc4F)C3=O)o2)c(OC)c1 [Compound A168],< 10 µM
13,Cc1cc(Cl)ccc1-c1ccc(C=C2SC(=S)N(c3cccc(C(=O)O)c3)C2=O)o1 [Compound A169],< 10 µM
14,Cc1cc(Cl)ccc1-c1ccc(C=C2SC(=S)N(c3cc(C(=O)O)ccc3F)C2=O)o1 [Compound A170],< 10 µM
15,Cc1cccc(C)c1-c1ccc(C=C2SC(=S)N(c3cccc(C(=O)O)c3)C2=O)o1 [Compound A171],11 to 40 µM
16,Cc1cccc(C)c1-c1ccc(C=C2SC(=S)N(c3cc(C(=O)O)ccc3F)C2=O)o1 [Compound A172],< 10 µM
17,Cc1ccccc1-c1cccc(C=C2SC(=S)N(c3cccc(C(=O)O)c3)C2=O)c1 [Compound A173],11 to 40 µM
18,Cc1ccccc1-c1cccc(C=C2SC(=S)N(c3cc(C(=O)O)ccc3F)C2=O)c1 [Compound A174],< 10 µM
19,COc1cc(F)ccc1-c1ccc(C=C2SC(=S)N(c3cccc(C(=O)O)c3)C2=O)o1 [Compound A175],< 10 µM
20,COc1cc(F)ccc1-c1ccc(C=C2SC(=S)N(c3cc(C(=O)O)ccc3F)C2=O)o1 [Compound A176],< 10 µM
21,COc1ccc(-c2ccc(C=C3SC(=S)N(c4cccc(C(=O)O)c4)C3=O)o2)cc1F [Compound A177],< 10 µM
22,COc1ccc(-c2ccc(C=C3SC(=S)N(c4cc(C(=O)O)ccc4F)C3=O)o2)cc1F [Compound A178],< 10 µM
23,O=C(O)c1cccc(N2C(=O)C(=Cc3ccc(-c4ccccc4OCc4ccccc4)o3)SC2=S)c1 [Compound A179],< 10 µM

row,Structure (SMILES),IC50
1,O=C(O)c1ccc(F)c(N2C(=O)C(=Cc3ccc(-c4ccccc4OCc4ccccc4)o3)SC2=S)c1 [Compound A180],< 10 µM
2,Cc1cc(C)c(-c2ccc(C=C3SC(=S)N(c4cc(C(=O)O)ccc4F)C3=O)o2)c(C)c1 [Compound A181],< 10 µM
3,Cc1cc(N(C)C)ccc1-c1ccc(C=C2SC(=S)N(c3cccc(C(=O)O)c3)C2=O)o1 [Compound A182],< 10 µM
4,Cc1cc(N(C)C)ccc1-c1ccc(C=C2SC(=S)N(c3cc(C(=O)O)ccc3F)C2=O)o1 [Compound A183],11 to 40 µM
5,Cc1cc(C)c(-c2ccc(C=C3SC(=S)N(c4cccc(C(=O)O)c4)C3=O)o2)c(C)c1 [Compound A184],11 to 40 µM
6,CSc1ccccc1-c1ccc(C=C2SC(=S)N(c3cccc(C(=O)O)c3)C2=O)o1 [Compound A185],< 10 µM
7,CSc1ccccc1-c1ccc(C=C2SC(=S)N(c3cc(C(=O)O)ccc3F)C2=O)o1 [Compound A186],< 10 µM
8,Cc1ccccc1-c1ccc(C=C2SC(=S)N(c3cccc(C(=O)O)c3)C2=O)s1 [Compound A187],11 to 40 µM
9,Cc1ccccc1-c1ccc(C=C2SC(=S)N(c3cc(C(=O)O)ccc3F)C2=O)s1 [Compound A188],< 10 µM
10,O=C(O)c1cccc(N2C(=O)C(=Cc3ccc(-c4ccccc4Cl)s3)SC2=S)c1 [Compound A189],< 10 µM
11,O=C(O)c1ccc(F)c(N2C(=O)C(=Cc3ccc(-c4ccccc4Cl)s3)SC2=S)c1 [Compound A190],< 10 µM
12,CN(C)c1ccc(-c2ccc(C=C3SC(=S)N(c4cc(C(=O)O)ccc4F)C3=O)o2)cc1 [Compound A191],< 10 µM
13,O=C(O)c1cccc(N2C(=O)C(=Cc3ccccc3-c3ccccc3OCc3ccccc3Cl)SC2=S)c1 [Compound A192],11 to 40 µM
14,O=C(O)c1cccc(N2C(=O)C(=Cc3ccc(-c4ccccc4Oc4ccccc4)o3)SC2=S)c1 [Compound A193],< 10 µM
15,O=C(O)c1ccc(F)c(N2C(=O)C(=Cc3ccc(-c4ccccc4Oc4ccccc4)o3)SC2=S)c1 [Compound A194],< 10 µM
16,O=C(O)c1cccc(N2C(=O)C(=Cc3ccc(-c4ccccc4F)s3)SC2=S)c1 [Compound A195],11 to 40 µM
17,O=C(O)c1cccc(N2C(=O)C(=Cc3ccc(-c4ccccc4F)s3)SC2=S)c1 [Compound A196],< 10 µM
18,O=C(O)c1ccc(F)c(N2C(=O)C(=Cc3ccccc3-c3ccccc3OCc3ccccc3Cl)SC2=S)c1 [Compound A197],< 10 µM
19,Cc1cccc(C)c1-c1ccc(C=C2SC(=S)N(c3cccc(C(=O)O)c3)C2=O)o1 [Compound A198],< 10 µM
20,O=C(O)c1cccc(N2C(=O)C(=Cc3ccc(-c4ccc(C(F)(F)F)cc4)o3)SC2=S)c1 [Compound A200],< 10 µM
21,O=C(O)c1ccc(F)c(N2C(=O)C(=Cc3ccc(-c4ccc(C(F)(F)F)cc4)o3)SC2=S)c1 [Compound A201],< 10 µM
22,O=C(O)c1cccc(N2C(=O)C(=Cc3ccc(-c4cccc(-c5ccccc5)c4)o3)SC2=S)c1 [Compound A202],< 10 µM
23,O=C(O)c1ccc(F)c(N2C(=O)C(=Cc3ccc(-c4cccc(-c5ccccc5)c4)o3)SC2=S)c1 [Compound A203],< 10 µM
